{"source": "patent US8628683B2", "about": "(Innospec Limited, priority 2007, dated 2014)", "key": {"[1]": {"experiment": "Appearance of solid samples stored at ambient temperatures over time", "type": "physicochemical", "conditions": "ambient storage", "source_text": "(§1) Samples of the materials were stored at ambient temperatures and the appearance of the samples and the mass thereof were noted over time."}, "[2]": {"experiment": "Increase in mass of solid samples stored at ambient temperatures over time", "type": "physicochemical", "conditions": "ambient storage", "source_text": "as §1"}, "[3]": {"conditions": "solid form of the commercially available material; cited from earlier work"}}}
{"smiles": "O=C1CCC(=O)ON2CCN(O1)OC(=O)CCC(=O)O2.[Na].[Na].[Na]", "note": "[Na3EDDS, trisodium ethylenediamine disuccinate]", "values": [{"measurement": "Appearance (2 h), printed in the column after 24 hr", "setting": "[1]; 2 h", "result": "Sticky solid"}, {"measurement": "Appearance after 48 hr", "setting": "[1]; 48 hr", "result": "Very stick"}, {"measurement": "Appearance after 72 hr", "setting": "[1]; 72 hr", "result": "Very sticky"}, {"measurement": "Initial Appearance", "setting": "[1]; initial", "result": "Free flowing"}, {"measurement": "% increase in mass after 2 h", "setting": "[2]; 2 h", "result": 7.4, "unit": "%"}, {"measurement": "% increase in mass after 4 h", "setting": "[2]; 4 h", "result": 8.9, "unit": "%"}, {"measurement": "% increase in mass after 72 h", "setting": "[2]; 72 h", "result": 25, "unit": "%"}, {"measurement": "hygroscopicity of the solid form", "setting": "[3]", "result": "very hygroscopic"}]}
